Reference: PubChem BioAssay (NCI)
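Cultured in 96-well plates, cells were exposed to test compound for 48 hours across five concentrations. Here, GI50 denotes the concentration required for 50% inhibition of growth. Definition used: TGI = concentration required for complete inhibition of growth.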

Key:
Test in all cases: NCI-60 cell line screen, 48 h
HS 578T breast = system: HS 578T breast
OVCAR-4 ovarian = system: OVCAR-4 ovarian
SF-539 CNS = system: SF-539 CNS
NCI/ADR-RES ovarian = system: NCI/ADR-RES ovarian
MALME-3M melanoma = system: MALME-3M melanoma
HOP-62 NSCLC = system: HOP-62 NSCLC
DU-145 prostate = system: DU-145 prostate
OVCAR-5 ovarian = system: OVCAR-5 ovarian
LOX IMVI melanoma = system: LOX IMVI melanoma
SK-MEL-2 melanoma = system: SK-MEL-2 melanoma
HT29 colon = system: HT29 colon
SF-268 CNS = system: SF-268 CNS
OVCAR-3 ovarian = system: OVCAR-3 ovarian
EKVX NSCLC = system: EKVX NSCLC
ACHN renal = system: ACHN renal
PC-3 prostate = system: PC-3 prostate
U251 CNS = system: U251 CNS
MDA-MB-231 breast = system: MDA-MB-231 breast
MCF7 breast = system: MCF7 breast
A498 renal = system: A498 renal
CCRF-CEM leukemia = system: CCRF-CEM leukemia
SK-MEL-5 melanoma = system: SK-MEL-5 melanoma
HCT-15 colon = system: HCT-15 colon
SK-MEL-28 melanoma = system: SK-MEL-28 melanoma
CAKI-1 renal = system: CAKI-1 renal
NCI-H23 lung = system: NCI-H23 lung
SR leukemia = system: SR leukemia
COLO 205 colon = system: COLO 205 colon
SN12C renal = system: SN12C renal
RXF 393 renal = system: RXF 393 renal
SNB-75 CNS = system: SNB-75 CNS
SK-OV-3 ovarian = system: SK-OV-3 ovarian
HOP-92 NSCLC = system: HOP-92 NSCLC
K-562 leukemia = system: K-562 leukemia
MOLT-4 leukemia = system: MOLT-4 leukemia
MDA-MB-435 = system: MDA-MB-435
M14 melanoma = system: M14 melanoma
NCI-H522 lung = system: NCI-H522 lung
NCI-H460 lung = system: NCI-H460 lung
SF-295 CNS = system: SF-295 CNS
BT-549 breast = system: BT-549 breast
SW-620 colon = system: SW-620 colon
SNB-19 CNS = system: SNB-19 CNS
UO-31 renal = system: UO-31 renal
NCI-H226 lung = system: NCI-H226 lung
IGROV1 ovarian = system: IGROV1 ovarian
786-0 renal = system: 786-0 renal
A549 NSCLC = system: A549 NSCLC
RPMI-8226 leukemia = system: RPMI-8226 leukemia
HCT-116 colon = system: HCT-116 colon
TK-10 renal = system: TK-10 renal
KM12 colon = system: KM12 colon
OVCAR-8 ovarian = system: OVCAR-8 ovarian
UACC-257 melanoma = system: UACC-257 melanoma
HCC-2998 colon = system: HCC-2998 colon
T-47D breast = system: T-47D breast
UACC-62 melanoma = system: UACC-62 melanoma
HL-60(TB) leukemia = system: HL-60(TB) leukemia

Nc1ccccc1-c1ccc([N+](=O)[O-])cc1
GI50 (HS 578T breast): 50.8 µM | TGI (HS 578T breast): > 100 µM | GI50 (OVCAR-4 ovarian): 40.8 µM | TGI (OVCAR-4 ovarian): > 100 µM | GI50 (SF-539 CNS): 3.92 µM | TGI (SF-539 CNS): 63 µM | GI50 (NCI/ADR-RES ovarian): 26.2 µM | TGI (NCI/ADR-RES ovarian): > 100 µM | GI50 (MALME-3M melanoma): 16.5 µM | TGI (MALME-3M melanoma): > 100 µM | GI50 (HOP-62 NSCLC): > 100 µM | TGI (HOP-62 NSCLC): > 100 µM | GI50 (DU-145 prostate): 73.1 µM | TGI (DU-145 prostate): > 100 µM | GI50 (OVCAR-5 ovarian): 31.8 µM | TGI (OVCAR-5 ovarian): > 100 µM | GI50 (LOX IMVI melanoma): 37.4 µM | TGI (LOX IMVI melanoma): > 100 µM | GI50 (SK-MEL-2 melanoma): > 100 µM | TGI (SK-MEL-2 melanoma): > 100 µM | GI50 (HT29 colon): 54.4 µM | TGI (HT29 colon): > 100 µM | GI50 (SF-268 CNS): 12.9 µM | TGI (SF-268 CNS): > 100 µM | GI50 (OVCAR-3 ovarian): 13.4 µM | TGI (OVCAR-3 ovarian): 76.9 µM | GI50 (EKVX NSCLC): 8.58 µM | TGI (EKVX NSCLC): > 100 µM | GI50 (ACHN renal): 4.99 µM | TGI (ACHN renal): > 100 µM | GI50 (PC-3 prostate): 15 µM | TGI (PC-3 prostate): > 100 µM | GI50 (U251 CNS): 40.7 µM | TGI (U251 CNS): > 100 µM | GI50 (MDA-MB-231 breast): 36.3 µM | TGI (MDA-MB-231 breast): > 100 µM | GI50 (MCF7 breast): 35 µM | TGI (MCF7 breast): > 100 µM | GI50 (A498 renal): 29 µM | TGI (A498 renal): > 100 µM | GI50 (CCRF-CEM leukemia): 2.31 µM | TGI (CCRF-CEM leukemia): > 100 µM | GI50 (SK-MEL-5 melanoma): 2.58 µM | TGI (SK-MEL-5 melanoma): > 100 µM | GI50 (HCT-15 colon): 14.3 µM | TGI (HCT-15 colon): > 100 µM | GI50 (SK-MEL-28 melanoma): 83.5 µM | TGI (SK-MEL-28 melanoma): > 100 µM | GI50 (CAKI-1 renal): 1.71 µM | TGI (CAKI-1 renal): > 100 µM | GI50 (NCI-H23 lung): 26.6 µM | TGI (NCI-H23 lung): > 100 µM | GI50 (SR leukemia): 29 µM | TGI (SR leukemia): > 100 µM | GI50 (COLO 205 colon): 10.7 µM | TGI (COLO 205 colon): 27.2 µM | GI50 (SN12C renal): 11.2 µM | TGI (SN12C renal): > 100 µM | GI50 (RXF 393 renal): 55.9 µM | TGI (RXF 393 renal): > 100 µM | GI50 (SNB-75 CNS): > 100 µM | TGI (SNB-75 CNS): > 100 µM | GI50 (SK-OV-3 ovarian): 68.3 µM | TGI (SK-OV-3 ovarian): > 100 µM | GI50 (HOP-92 NSCLC): 17.9 µM | TGI (HOP-92 NSCLC): 97.6 µM | GI50 (K-562 leukemia): 1.32 µM | TGI (K-562 leukemia): > 100 µM | GI50 (MOLT-4 leukemia): 4.28 µM | TGI (MOLT-4 leukemia): > 100 µM | GI50 (MDA-MB-435): 5.01 µM | TGI (MDA-MB-435): > 100 µM | GI50 (M14 melanoma): 97.7 µM | TGI (M14 melanoma): > 100 µM | GI50 (NCI-H522 lung): 11.2 µM | TGI (NCI-H522 lung): > 100 µM | GI50 (NCI-H460 lung): 4.44 µM | TGI (NCI-H460 lung): > 100 µM | GI50 (SF-295 CNS): 2.18 µM | TGI (SF-295 CNS): 64.8 µM | GI50 (BT-549 breast): 4.54 µM | TGI (BT-549 breast): 37.1 µM | GI50 (SW-620 colon): 19.3 µM | TGI (SW-620 colon): > 100 µM | GI50 (SNB-19 CNS): 24.2 µM | TGI (SNB-19 CNS): > 100 µM | GI50 (UO-31 renal): 5.07 µM | TGI (UO-31 renal): > 100 µM | GI50 (NCI-H226 lung): 33.6 µM | TGI (NCI-H226 lung): > 100 µM | GI50 (IGROV1 ovarian): 19 µM | TGI (IGROV1 ovarian): > 100 µM | GI50 (786-0 renal): 9.16 µM | TGI (786-0 renal): > 100 µM | GI50 (A549 NSCLC): 4.65 µM | TGI (A549 NSCLC): > 100 µM | GI50 (RPMI-8226 leukemia): 4.95 µM | TGI (RPMI-8226 leukemia): > 100 µM | GI50 (HCT-116 colon): 3.4 µM | TGI (HCT-116 colon): > 100 µM | GI50 (TK-10 renal): 25.9 µM | TGI (TK-10 renal): > 100 µM | GI50 (KM12 colon): 1.59 µM | TGI (KM12 colon): 11.4 µM | GI50 (OVCAR-8 ovarian): 63.4 µM | TGI (OVCAR-8 ovarian): > 100 µM | GI50 (UACC-257 melanoma): 21.1 µM | TGI (UACC-257 melanoma): > 100 µM | GI50 (HCC-2998 colon): 2.25 µM | TGI (HCC-2998 colon): 8.54 µM | GI50 (T-47D breast): 3.04 µM | TGI (T-47D breast): > 100 µM | GI50 (UACC-62 melanoma): 0.756 µM | TGI (UACC-62 melanoma): 19.4 µM | GI50 (HL-60(TB) leukemia): 2.93 µM | TGI (HL-60(TB) leukemia): 26.1 µM
